Experimental data taken from patent publication US12077503B2, “Substituted cyclic amides and their use as herbicides” (FMC CORPORATION, priority 2015, dated 2024).

Experiments:
Type in all cases: in vivo
[1] = test system: pigweed (Amaranthus retroflexus); test: Test A preemergence; conditions: Amaranthus retroflexus, pre-emergence, 240 h, preemergence, 0 to 100 scale where 0 is no effect and 100 is complete control, read-out: Pigweed plant response rating; for pest or weed control at 125 g/ha: 125 g ai/ha, visual injury rating, approximately 10 d; for pest or weed control at 500 g/ha: 500 g ai/ha
[2] = test system: barnyardgrass (Echinochloa crus-galli); test: Test A preemergence; conditions: Echinochloa crus-galli, pre-emergence, 240 h, preemergence, 0 to 100 scale where 0 is no effect and 100 is complete control, read-out: Barnyardgrass plant response rating; for pest or weed control at 125 g/ha: 125 g ai/ha, visual injury rating, approximately 10 d; for pest or weed control at 500 g/ha: 500 g ai/ha
In short: (§1)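 Preemergence directed soil spray on seeded pots, or postemergence application to plants 2–10 cm, one- to two-leaf. Solvent mixture non-phytotoxic, with surfactant. Scored ~10 d later, visually, 0–100 vs untreated.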

[3] = test system: ryegrass, Italian (Italian ryegrass, Lolium multiflorum); test: Test A preemergence; conditions: Lolium multiflorum, pre-emergence, 240 h, preemergence, 0 to 100 scale where 0 is no effect and 100 is complete control, read-out: Ryegrass, Italian plant response rating; for pest or weed control at 125 g/ha: 125 g ai/ha, visual injury rating, approximately 10 d; for pest or weed control at 500 g/ha: 500 g ai/ha
In short: as §1

Kochia (Kochia scoparia) [4] = test: Test A preemergence; conditions: Bassia scoparia, pre-emergence, 240 h, preemergence, 0 to 100 scale where 0 is no effect and 100 is complete control, read-out: Kochia plant response rating; for pest or weed control at 125 g/ha: 125 g ai/ha, visual injury rating, approximately 10 d; for pest or weed control at 500 g/ha: 500 g ai/ha
In short: as §1

[5] = test system: ragweed (common ragweed, Ambrosia elatior); test: Test A preemergence; conditions: Ambrosia artemisiifolia, pre-emergence, 240 h, preemergence, 0 to 100 scale where 0 is no effect and 100 is complete control, read-out: Ragweed plant response rating; for pest or weed control at 125 g/ha: 125 g ai/ha, visual injury rating, approximately 10 d; for pest or weed control at 500 g/ha: 500 g ai/ha
In short: as §1

[6] = test system: giant foxtail (Setaria faberii); test: Test A preemergence; conditions: Setaria faberi, pre-emergence, 240 h, preemergence, 0 to 100 scale where 0 is no effect and 100 is complete control, read-out: Foxtail, Giant plant response rating; for pest or weed control at 125 g/ha: 125 g ai/ha, visual injury rating, approximately 10 d; for pest or weed control at 500 g/ha: 500 g ai/ha
In short: as §1

[7] = test system: pigweed (Amaranthus retroflexus); test: Test A postemergence; conditions: Amaranthus retroflexus, post-emergence, 240 h, postemergence; for pest or weed control at 125 g/ha: 125 g ai/ha, visual injury vs untreated controls after approx. 10 d, 0 = no effect, 100 = complete control, read-out: Pigweed plant response rating (0 to 100 scale); for pest or weed control at 500 g/ha: 500 g ai/ha, 0 to 100 scale, 0 is no effect, 100 is complete control, read-out: Pigweed plant response rating
In short: as §1

[8] = test system: barnyardgrass (Echinochloa crus-galli); test: Test A postemergence; conditions: Echinochloa crus-galli, post-emergence, 240 h, postemergence; for pest or weed control at 125 g/ha: 125 g ai/ha, visual injury vs untreated controls after approx. 10 d, 0 = no effect, 100 = complete control, read-out: Barnyardgrass plant response rating (0 to 100 scale); for pest or weed control at 500 g/ha: 500 g ai/ha, 0 to 100 scale, 0 is no effect, 100 is complete control, read-out: Barnyardgrass plant response rating
In short: as §1

[9] = test system: ryegrass, Italian (Italian ryegrass, Lolium multiflorum); test: Test A postemergence; conditions: Lolium multiflorum, post-emergence, 240 h, postemergence; for pest or weed control at 125 g/ha: 125 g ai/ha, visual injury vs untreated controls after approx. 10 d, 0 = no effect, 100 = complete control, read-out: Ryegrass, Italian plant response rating (0 to 100 scale); for pest or weed control at 500 g/ha: 500 g ai/ha, 0 to 100 scale, 0 is no effect, 100 is complete control, read-out: Ryegrass, Italian plant response rating
In short: as §1

[10] = test system: wheat (Triticum aestivum); test: Test A postemergence; conditions: Triticum aestivum, post-emergence, 240 h, postemergence; for plant injury at 125 g/ha: 125 g ai/ha, visual injury vs untreated controls after approx. 10 d, 0 = no effect, 100 = complete control, read-out: Wheat plant response rating (0 to 100 scale); for plant injury at 500 g/ha: 500 g ai/ha, 0 to 100 scale, 0 is no effect, 100 is complete control, read-out: Wheat plant response rating
In short: as §1

Kochia (Kochia scoparia) [11] = test: Test A postemergence; conditions: Bassia scoparia, post-emergence, 240 h, postemergence; for pest or weed control at 125 g/ha: 125 g ai/ha, visual injury vs untreated controls after approx. 10 d, 0 = no effect, 100 = complete control, read-out: Kochia plant response rating (0 to 100 scale); for pest or weed control at 500 g/ha: 500 g ai/ha, 0 to 100 scale, 0 is no effect, 100 is complete control, read-out: Kochia plant response rating
In short: as §1

[12] = test system: Galium (catchweed bedstraw, Galium aparine); test: Test A postemergence; conditions: Galium, post-emergence, 240 h, postemergence; for pest or weed control at 125 g/ha: 125 g ai/ha, visual injury vs untreated controls after approx. 10 d, 0 = no effect, 100 = complete control, read-out: Galium plant response rating (0 to 100 scale); for pest or weed control at 500 g/ha: 500 g ai/ha, 0 to 100 scale, 0 is no effect, 100 is complete control, read-out: Galium plant response rating
In short: as §1

corn (Zea mays) = test: Test A postemergence; conditions: Zea mays, post-emergence, 240 h, postemergence; for plant injury at 125 g/ha: 125 g ai/ha, visual injury vs untreated controls after approx. 10 d, 0 = no effect, 100 = complete control, read-out: Corn plant response rating (0 to 100 scale); for plant injury at 500 g/ha: 500 g ai/ha, 0 to 100 scale, 0 is no effect, 100 is complete control, read-out: Corn plant response rating
In short: as §1

[13] = test system: blackgrass (Alopecurus myosuroides); test: Test A postemergence; conditions: Alopecurus myosuroides, post-emergence, 240 h, postemergence; for pest or weed control at 125 g/ha: 125 g ai/ha, visual injury vs untreated controls after approx. 10 d, 0 = no effect, 100 = complete control, read-out: Blackgrass plant response rating (0 to 100 scale); for pest or weed control at 500 g/ha: 500 g ai/ha, 0 to 100 scale, 0 is no effect, 100 is complete control, read-out: Blackgrass plant response rating
In short: as §1

[14] = test system: ragweed (common ragweed, Ambrosia elatior); test: Test A postemergence; conditions: Ambrosia artemisiifolia, post-emergence, 240 h, postemergence; for pest or weed control at 125 g/ha: 125 g ai/ha, visual injury vs untreated controls after approx. 10 d, 0 = no effect, 100 = complete control, read-out: Ragweed plant response rating (0 to 100 scale); for pest or weed control at 500 g/ha: 500 g ai/ha, 0 to 100 scale, 0 is no effect, 100 is complete control, read-out: Ragweed plant response rating
In short: as §1

[15] = test system: giant foxtail (Setaria faberii); test: Test A postemergence; conditions: Setaria faberi, post-emergence, 240 h, postemergence; for pest or weed control at 125 g/ha: 125 g ai/ha, visual injury vs untreated controls after approx. 10 d, 0 = no effect, 100 = complete control, read-out: Foxtail, Giant plant response rating (0 to 100 scale); for pest or weed control at 500 g/ha: 500 g ai/ha, 0 to 100 scale, 0 is no effect, 100 is complete control, read-out: Foxtail, Giant plant response rating
In short: as §1

## Cc1cc([C@H]2CN(C)C(=O)[C@@H]2C(=O)Nc2ccccc2F)on1 [Compound 1195]
[1]
  pest or weed control at 125 g/ha: 0%
  pest or weed control at 500 g/ha: 0%
[2]
  pest or weed control at 125 g/ha: 0%
  pest or weed control at 500 g/ha: 80%
[3]
  pest or weed control at 125 g/ha: 0%
  pest or weed control at 500 g/ha: 0%
Kochia (Kochia scoparia) [4]
  pest or weed control at 125 g/ha: 0%
  pest or weed control at 500 g/ha: 0%
[5]
  pest or weed control at 125 g/ha: 0%
  pest or weed control at 500 g/ha: 0%
[6]
  pest or weed control at 125 g/ha: 0%
  pest or weed control at 500 g/ha: 40%
[7]
  pest or weed control at 125 g/ha: 0%
  pest or weed control at 500 g/ha: 0%
[8]
  pest or weed control at 125 g/ha: 0%
  pest or weed control at 500 g/ha: 20%
[9]
  pest or weed control at 125 g/ha: 0%
  pest or weed control at 500 g/ha: 0%
[10]
  plant injury at 125 g/ha: 0%
  plant injury at 500 g/ha: 0%
Kochia (Kochia scoparia) [11]
  pest or weed control at 125 g/ha: 0%
  pest or weed control at 500 g/ha: 0%
[12]
  pest or weed control at 125 g/ha: 0%
  pest or weed control at 500 g/ha: 0%
Corn (Zea mays)
  plant injury at 125 g/ha: 0%
  plant injury at 500 g/ha: 0%
[13]
  pest or weed control at 125 g/ha: 0%
  pest or weed control at 500 g/ha: 0%
[14]
  pest or weed control at 125 g/ha: 0%
  pest or weed control at 500 g/ha: 0%
[15]
  pest or weed control at 125 g/ha: 0%
  pest or weed control at 500 g/ha: 20%

## CSc1ccccc1NC(=O)[C@H]1C(=O)N(C)C[C@@H]1c1ccc(OC(F)F)cc1 [Compound 1212]
[1]
  pest or weed control at 125 g/ha: 80%
  pest or weed control at 500 g/ha: 90%
[2]
  pest or weed control at 125 g/ha: 80%
  pest or weed control at 500 g/ha: 100%
[3]
  pest or weed control at 125 g/ha: 0%
  pest or weed control at 500 g/ha: 70%
Kochia (Kochia scoparia) [4]
  pest or weed control at 125 g/ha: 100%
  pest or weed control at 500 g/ha: 100%
[5]
  pest or weed control at 125 g/ha: 40%
  pest or weed control at 500 g/ha: 90%
[6]
  pest or weed control at 125 g/ha: 90%
  pest or weed control at 500 g/ha: 100%
[7]
  pest or weed control at 125 g/ha: 50%
  pest or weed control at 500 g/ha: 70%
[8]
  pest or weed control at 125 g/ha: 80%
  pest or weed control at 500 g/ha: 100%
[9]
  pest or weed control at 125 g/ha: 0%
  pest or weed control at 500 g/ha: 20%
[10]
  plant injury at 125 g/ha: 0%
  plant injury at 500 g/ha: 40%
Kochia (Kochia scoparia) [11]
  pest or weed control at 125 g/ha: 60%
  pest or weed control at 500 g/ha: 80%
[12]
  pest or weed control at 125 g/ha: 50%
  pest or weed control at 500 g/ha: 60%
Corn (Zea mays)
  plant injury at 125 g/ha: 0%
  plant injury at 500 g/ha: 20%
[13]
  pest or weed control at 125 g/ha: 0%
  pest or weed control at 500 g/ha: 30%
[14]
  pest or weed control at 125 g/ha: 0%
  pest or weed control at 500 g/ha: 30%
[15]
  pest or weed control at 125 g/ha: 70%
  pest or weed control at 500 g/ha: 90%

## Cc1c(F)cccc1NC(=O)[C@H]1C(=O)N(C)C[C@@H]1c1ccc(F)cc1 [Compound 1235]
[1]
  pest or weed control at 125 g/ha: 30%
  pest or weed control at 500 g/ha: 90%
[2]
  pest or weed control at 125 g/ha: 100%
  pest or weed control at 500 g/ha: 100%
[3]
  pest or weed control at 125 g/ha: 50%
  pest or weed control at 500 g/ha: 60%
Kochia (Kochia scoparia) [4]
  pest or weed control at 125 g/ha: 60%
  pest or weed control at 500 g/ha: 80%
[5]
  pest or weed control at 125 g/ha: 70%
  pest or weed control at 500 g/ha: 90%
[6]
  pest or weed control at 125 g/ha: 100%
  pest or weed control at 500 g/ha: 100%
[7]
  pest or weed control at 125 g/ha: 0%
  pest or weed control at 500 g/ha: 50%
[8]
  pest or weed control at 125 g/ha: 90%
  pest or weed control at 500 g/ha: 100%
[9]
  pest or weed control at 125 g/ha: 0%
  pest or weed control at 500 g/ha: 30%
[10]
  plant injury at 125 g/ha: 40%
Kochia (Kochia scoparia) [11]
  pest or weed control at 125 g/ha: 30%
  pest or weed control at 500 g/ha: 50%
[12]
  pest or weed control at 125 g/ha: 50%
  pest or weed control at 500 g/ha: 70%
Corn (Zea mays)
  plant injury at 125 g/ha: 70%
  plant injury at 500 g/ha: 100%
[13]
  pest or weed control at 125 g/ha: 30%
  pest or weed control at 500 g/ha: 40%
[14]
  pest or weed control at 125 g/ha: 0%
  pest or weed control at 500 g/ha: 30%
[15]
  pest or weed control at 125 g/ha: 80%
  pest or weed control at 500 g/ha: 90%
